What was measured:
[1] = test system: TC-71 (Ewing's sarcoma) cells; test: Cell proliferation assay, TC-71 (Alamar Blue); format: cell-based; details: 72 h with compound, EC50 ranges as class symbols
How it was run: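 TC-71 Ewing's sarcoma cells, 2000/well in IMDM + 10% FCS, attached overnight, then exposed to serial compound dilutions in duplicate for 72 h at 37° C. Viability by Alamar Blue (7 h; fluorescence ex 544/em 590 nm); IC50 from sigmoidal variable-slope fit of normalized data.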

[2] = target: T1, cytoplasmic kinase domain of human IGF-1R (IGF-1R-GST) (Homo sapiens, UniProt P08069); test: Insulin-like growth factor-1 receptor (IGF-1R) kinase assay (DELFIA); format: biochemical; details: IGF-1R-GST kinase activity, read-out: IGF1R IC50
T1 construct: cytoplasmic kinase domain of human IGF-1R (amino acids 964-1370); GST (glutathione-S-transferase); made in house; host or cells: High Five insect cells (Invitrogen)
T1 sequence (P08069 964-1367 limits assumed): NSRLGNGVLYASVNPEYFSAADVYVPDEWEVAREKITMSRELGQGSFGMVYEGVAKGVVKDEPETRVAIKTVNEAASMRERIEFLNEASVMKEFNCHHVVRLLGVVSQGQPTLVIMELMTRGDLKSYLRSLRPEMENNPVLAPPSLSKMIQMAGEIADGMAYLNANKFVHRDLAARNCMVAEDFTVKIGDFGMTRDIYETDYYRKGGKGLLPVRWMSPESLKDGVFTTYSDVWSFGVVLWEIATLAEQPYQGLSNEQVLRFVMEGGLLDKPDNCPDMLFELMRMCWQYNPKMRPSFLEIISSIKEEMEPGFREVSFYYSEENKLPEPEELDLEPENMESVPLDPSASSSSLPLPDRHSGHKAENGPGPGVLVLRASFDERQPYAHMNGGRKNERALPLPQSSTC
How it was run: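 GST-tagged IGF-1R cytoplasmic kinase domain phosphorylates pEY with biotinylated pEY for 40 min at RT; EDTA stop. Product captured on streptavidin, detected with europium anti-phosphotyrosine antibody by DELFIA time-resolved fluorescence; IC50 from inhibition curves.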

SMILES	EC50 [1] [nM]	IC50 [2] [nM]
COc1cc(C2CCN(CC#N)CC2)ccc1Nc1ncc(Cl)c(NCc2cccc3c2C(C)(C)C(=O)N3)n1 [Example I-374]	50 to 250	11
COCCN1CCC(c2ccc(Nc3ncc(Cl)c(NCc4cccc5c4C(C)(C)C(=O)N5)n3)cc2C)CC1 [Example I-376]	< 50	0.6
Cc1cc(C2CCN(CC(C)(C)O)CC2)ccc1Nc1ncc(Cl)c(NCc2cccc3c2C(C)(C)C(=O)N3)n1 [Example I-377]	< 50	0.9
COCCN1CCN(c2ccc(Nc3ncc(Cl)c(NCc4cccc5c4C(C)(C)C(=O)N5)n3)c(OC)c2)CC1 [Example I-386]	< 50	3

Second part, the compound after the results:

EC50 [1] [nM]	IC50 [2] [nM]	SMILES
< 50	2	COCCN1CCN(c2ccc(Nc3ncc(Br)c(NCc4cccc5c4C(C)(C)C(=O)N5)n3)c(OC)c2)CC1 [Example I-369]
< 50	9	Cc1cc(C2CCN(CC#N)CC2)ccc1Nc1ncc(Cl)c(NCc2cccc3c2C(C)(C)C(=O)N3)n1 [Example I-375]
50 to 250	6	CCc1cc(C2CCN(CC(C)(C)O)CC2)ccc1Nc1ncc(Cl)c(NCc2cccc3c2C(C)(C)C(=O)N3)n1 [Example I-378]
50 to 250	4	CCc1cc(C2CCN(CCOC)CC2)ccc1Nc1ncc(Cl)c(NCc2cccc3c2C(C)(C)C(=O)N3)n1 [Example I-385]

Reference: patent US8546443B2, “Benzylic oxindole pyrimidines” (Boehringer Ingelheim International GmbH, priority 2010, dated 2013)
